PMC6264731, “Chemo-Enzymatic Synthesis of Ester-Linked Docetaxel-Monosaccharide Conjugates as Water-Soluble Prodrugs” (Molecules, 2011)
≈ marks a conversion by molar mass, not a printed value. Where two headings read alike, the source gives them in different places.

Experiments:
[1] = Water-solubility, stirred in water 24 h at 25 °C, HPLC quantification; format: physicochemical
Description: The mixture was centrifuged at 100,000 g for 30 min at 25 °C. The concentration of test compounds was estimated on the basis of their peak areas using calibration curves prepared by HPLC analyses of authentic samples.

KB human cancer cells [2] = assay: MTT cytotoxicity assay in KB cells; format: cell-based; details: 24 h treatment
Description: (§1) The sensitivity of KB and MCF-7 cells to docetaxel or 4–6 was determined according to the previously reported method. Cells were diluted with culture medium to the seeding density (10^5 cells/mL), suspended in 96-well tissue culture plates (100 μL/well), preincubated at 37 °C for 4 h, and then treated for 24 h with docetaxel or 4–6 at various concentrations to obtain a dose–response curve for each compound. After incubation, 20 μL MTT solution (2.5 mg/mL) was added to each well and the plates were further incubated for 4 h. Absorbance at 570 nm was measured with a microplate reader model 450 (BIO-RAD). Dose-response curves were plotted on a semi-log scale as percentage of the cell numbers in control cultures not exposed to test compounds.

MCF-7 human cancer cells = assay: MTT cytotoxicity assay in MCF-7 cells; format: cell-based; details: for IC50 MCF-7 cells: 24 h treatment
Description: as §1

KB human cancer cells [3] = assay: Hydrolysis of prodrugs by KB cells, release of docetaxel (HPLC); format: cell-based; details: 5 μmol compound, 20 mg KB cells in RPMI 1640, 37 °C, 24 h
Description: To a 5-mL vial containing RPMI 1640 medium (1 mL, Nissui Pharmaceutical Co. Ltd.) and KB cells (20 mg) was added 5 μmol of each compound. The mixture was incubated at 37 °C for 24 h. The cells and medium were separated by centrifugation at 10,000 g for 5 min. The cells were extracted with MeOH. MeOH extract was concentrated, and the residue was partitioned between H2O and CH2Cl2. The medium was extracted with CH2Cl2. The CH2Cl2 fractions were combined, concentrated, and analyzed by HPLC. The yield of docetaxel was calculated on the basis of the peak area from HPLC using a calibration curve provided by HPLC analyses of authentic docetaxel.

Compound	Fold (water-solubility relative to docetaxel) ([1]; relative to docetaxel)	solubility at 24 h ([1]; thermodynamic from solid)	IC50 (KB human cancer cells [2]; Homo sapiens)	IC50 (MCF-7 human cancer cells; Homo sapiens, MCF7, 24 h treatment)	solubility at 24 h [1]	IC50 KB cells (KB human cancer cells [2])	IC50 MCF-7 cells (MCF-7 human cancer cells)	Conversion to docetaxel (hydrolysis by KB cells) (KB human cancer cells [3])
CC(=O)O[C@@]12CO[C@@H]1C[C@H](O)[C@@]1(C)C(=O)[C@H](O)C3=C(C)[C@@H](OC(=O)[C@H](O)[C@@H](NC(=O)OC(C)(C)C)c4ccccc4)C[C@@](O)([C@@H](OC(=O)c4ccccc4)[C@H]21)C3(C)C [Docetaxel]	1 fold	0.5 µM (≈ 0.404 µg/mL)	12 µg/mL (≈ 14.9 µM)	5 µg/mL (≈ 6.19 µM)				
7-propionyldocetaxel 3''-O-β-D-xylopyranoside [Compound 6]					20.2 µM	25 µg/mL	12 µg/mL	76%
7-propionyldocetaxel 3''-O-β-D-galactopyranoside [Compound 5]					25.5 µM	41 µg/mL	28 µg/mL	45%
